Target: Potassium voltage-gated channel subfamily KQT member 2 (Rattus norvegicus) (UniProt O88943)
Assay: PubChem AID 1407
Settings: KCNQ2-expressing cells, rubidium efflux, at 10 µM, stronger effect = higher value

Potassium voltage-gated channel subfamily KQT member 2 (Rattus norvegicus), sequence (O88943 whole entry, looked up): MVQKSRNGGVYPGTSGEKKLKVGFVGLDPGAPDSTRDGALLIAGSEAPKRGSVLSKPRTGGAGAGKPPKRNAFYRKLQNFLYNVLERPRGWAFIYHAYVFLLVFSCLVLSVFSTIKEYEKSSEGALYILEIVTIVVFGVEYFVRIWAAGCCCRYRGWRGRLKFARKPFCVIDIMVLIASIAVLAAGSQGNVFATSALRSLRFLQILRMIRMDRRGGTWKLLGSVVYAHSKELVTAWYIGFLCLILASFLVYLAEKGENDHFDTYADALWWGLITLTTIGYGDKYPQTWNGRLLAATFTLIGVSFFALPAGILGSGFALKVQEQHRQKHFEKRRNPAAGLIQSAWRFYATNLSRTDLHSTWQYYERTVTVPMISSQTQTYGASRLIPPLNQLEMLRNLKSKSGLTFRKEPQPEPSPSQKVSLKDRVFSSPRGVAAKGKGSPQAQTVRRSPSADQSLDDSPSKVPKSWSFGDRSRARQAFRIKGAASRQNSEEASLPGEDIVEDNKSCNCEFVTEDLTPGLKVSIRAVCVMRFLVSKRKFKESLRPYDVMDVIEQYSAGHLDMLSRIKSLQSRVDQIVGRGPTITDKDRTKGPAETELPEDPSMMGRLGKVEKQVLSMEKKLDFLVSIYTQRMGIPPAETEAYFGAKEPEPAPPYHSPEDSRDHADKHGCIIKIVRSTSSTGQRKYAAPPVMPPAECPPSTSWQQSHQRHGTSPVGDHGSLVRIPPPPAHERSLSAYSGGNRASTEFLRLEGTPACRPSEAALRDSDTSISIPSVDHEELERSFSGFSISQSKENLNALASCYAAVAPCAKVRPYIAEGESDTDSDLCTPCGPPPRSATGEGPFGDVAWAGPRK

O[N+]1=CC=CCC1=S.On1ccccc1=S.[Zn]
activity increase: 23.1%
efflux (measured here: rubidium efflux percent): 85.5%
